Among the data in the supplement of paper PMC10307832 are relative viability values, retold here.

Compound in the assay “Selumetinib + Foretinib”: Cn1cnc2c(F)c(Nc3ccc(Br)cc3Cl)c(C(=O)NOCCO)cc21 [Selumetinib] + COc1cc2c(Oc3ccc(NC(=O)C4(C(=O)Nc5ccc(F)cc5)CC4)cc3F)ccnc2cc1OCCCN1CCOCC1 [Foretinib] (partner 0.25 µM)
In words: relative viability (nuclei count vs DMSO), 5 days (fraction); higher = more cells survive. An outline of the steps: (§1)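 Relative viability divides the nuclei count in treated wells by that in vehicle wells. Lung cancer cell lines were seeded in 1536-well plates, dosed by pin tool the next day, and fixed and stained after 5 days in one step with final 0.05% Triton X-100, 1% formaldehyde and 1 ug/ml Hoechst. Dosing was a single drug or a fixed anchor-drug dose plus five library-drug doses (not always all listed) in √10 steps, and values are medians of duplicate plates imaged at 4×.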

Compound in the assay “Venetoclax + Navitoclax”: CC1(C)CCC(CN2CCN(c3ccc(C(=O)NS(=O)(=O)c4ccc(NCC5CCOCC5)c([N+](=O)[O-])c4)c(Oc4cnc5[nH]ccc5c4)c3)CC2)=C(c2ccc(Cl)cc2)C1 [Venetoclax] + CC1(C)CCC(c2ccc(Cl)cc2)=C(CN2CCN(c3ccc(C(=O)NS(=O)(=O)c4ccc(N[C@H](CCN5CCOCC5)CSc5ccccc5)c(S(=O)(=O)C(F)(F)F)c4)cc3)CC2)C1 [Navitoclax] (partner 0.5 µM)
The description is as above. The method in brief:
as §1

With CAL-12T, the relative viability in the assay with Selumetinib + Foretinib (first compound 0.02 µM) is 1.05; in the assay with Selumetinib + Foretinib (first compound 0.06325 µM), 1.04; with Selumetinib + Foretinib (first compound 0.2 µM), 1.14; in the assay with Selumetinib + Foretinib (first compound 0.6325 µM) it was 0.839; with Venetoclax + Navitoclax (first compound 0.01 µM) it was 1.4; in the assay with Venetoclax + Navitoclax (first compound 0.03162 µM) it was 1.22. Besides, the relative viability in the assay with Venetoclax + Navitoclax (first compound 0.1 µM) worked out at 0.956; with Venetoclax + Navitoclax (first compound 0.3162 µM), 1.15; with Venetoclax + Navitoclax (first compound 1 µM), 1.1.

In the case of EBC-1, the relative viability with Selumetinib + Foretinib (first compound 0.02 µM) is 0.0932; in the assay with Selumetinib + Foretinib (first compound 0.06325 µM), 0.0928; in the assay with Selumetinib + Foretinib (first compound 0.2 µM), 0.114; with Selumetinib + Foretinib (first compound 0.6325 µM) it was 0.109; in the assay with Venetoclax + Navitoclax (first compound 0.01 µM), 0.389; with Venetoclax + Navitoclax (first compound 0.03162 µM), 0.455. For the same cell line, the results for the relative viability in the assay with Venetoclax + Navitoclax (first compound 0.1 µM), with Venetoclax + Navitoclax (first compound 0.3162 µM) and with Venetoclax + Navitoclax (first compound 1 µM) were 0.479, 0.443 and 0.47, respectively.
